The target in one test is TRKA kinase (Homo sapiens (Human), UniProt P04629). The experiment in a line: Assay of small molecular compounds for inhibiting the activity of TRKA kinase (LANCE TR-FRET). The format is biochemical. An outline of the steps:
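LANCE TR-FRET with ULight-TK peptide; compounds pre-incubated 5 min with TRKA (2× solution 2 nM), then substrate/ATP added (4× mix: 400 nM peptide, 40 μM ATP). Reaction 60 min at room temperature in dark, 1% DMSO final; stopped, detection developed 60 min, signal read.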
Background: In TR-FRET formats the signal depends on donor and acceptor labels being close together.

The target in a further test is c-MET kinase (Homo sapiens (Human), UniProt P08581). The experiment in a line: Assay of small molecular compounds for inhibiting the activity of c-MET kinase (LANCE TR-FRET). The format is biochemical. To be noted: read-out: CMET IC50. In short, it runs like this:
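LANCE TR-FRET assay with c-MET at 1 nM final after a 5 min room-temperature preincubation with compound (11-point, 3-fold series, 2500–0.042 nM final, 4% DMSO). ULight-JAK-1 (Tyr1023) peptide (100 nM final) and ATP (10 μM final) reacted 60 min in the dark. Inhibition was taken relative to controls, then IC50 fitted.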

In a further test the target is MER kinase (Homo sapiens (Human), UniProt Q12866). The test is described as follows: Assay of small molecular compounds for inhibiting the activity of MER kinase (LANCE TR-FRET). The format is biochemical. An outline of the steps:
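MER kinase preincubated 5 min at RT with compound (11 points, 0.042-2500 nM final), then ULight-poly GT and ATP added (4× stocks 200 nM and 20 μM) for 60 min at RT, 1% DMSO. Phosphorylation detected by LANCE TR-FRET; IC50 from % inhibition versus controls.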

In a further test the test system is Ba/F3-AXL cells. The test is described as follows: Assay for inhibiting the proliferation of Ba/F3-AXL cells (CCK-8). The format is cell-based. To be noted: 72 hours of incubation, medium with 100 ng/mL hGas6, CCK-8. The procedure: The values were then imported into Graphpad Prism 5 software for curve fitting, and IC50 was calculated.
Another test relates to Ba/F3 LMNA-NTRK1 cells. The experiment in a line: Assay for inhibiting the proliferation of Ba/F3 LMNA-NTRK1 cells (CCK-8). It counts as cell-based. As to conditions: Mus musculus, BaF3. The procedure:
In particular, the method of the assay of small molecular compounds for inhibiting cell proliferation is as follows: • 1. Cells cultured to a logarithmic growth phase (adherent cells need to be digested with trypsin and neutralized) were taken, pipetted evenly, transferred to a 15 mL centrifuge tube, and centrifuged at 1000 rpm at room temperature for 4 minutes; • 2. The supernatant was discarded; 5 mL of complete medium was added and pipetted evenly; 10 μL of cell suspension was taken out, mixed well with 10 μL of 0.4% trypan blue, and counted under a cell counter; the proportion of living cells was ensured to be above 90%; • 3. 80 μL of cell suspension per well was seeded into a 96-well plate according to the conditions shown in the attached table, and cultured overnight; in the outer 36 wells of the 96-well plate, no cells were added but only sterile water was added; only the inner 60 wells were used for cell assay and control; • 4. […] 20 μL of the corresponding compounds with different concentration gradients were added to each well of assay wells of the 96-well plate; 20 μL of complete medium was added to positive and negative control wells and shaken well; and the final concentration of DMSO in each well was 0.25%; • 6. After 72 hours of incubation, 10 μL of CCK-8 reagent was added to each well and further incubated at 37° C. for 1-2 hours; and the OD value was read at 450 nm; • 7. Cell survival rate (%)=[(As−Ab)/(Ac−Ab)]*100% • As: Assay well (medium containing cells, CCK-8, compound), • Ac: Control well (medium containing cells, CCK-8), • Ab: Blank well (CCK-8, medium without cell and compound), • 8. The values were imported into Graphpad Prism 5 software for IC50 calculation.

The next test deals with MHCC97H cells. The test is described as follows: Assay for inhibiting the proliferation of MHCC97H cells (CCK-8). It counts as cell-based. As to conditions: Homo sapiens. The procedure: In particular, the method of the assay of small molecular compounds for inhibiting cell proliferation is as follows: • 1. Cells cultured to a logarithmic growth phase (adherent cells need to be digested with trypsin and neutralized) were taken, pipetted evenly, transferred to a 15 mL centrifuge tube, and centrifuged at 1000 rpm at room temperature for 4 minutes; • 2. The supernatant was discarded; 5 mL of complete medium was added and pipetted evenly; 10 μL of cell suspension was taken out, mixed well with 10 μL of 0.4% trypan blue, and counted under a cell counter; the proportion of living cells was ensured to be above 90%; • 3. 80 μL of cell suspension per well was seeded into a 96-well plate according to the conditions shown in the attached table, and cultured overnight; in the outer 36 wells of the 96-well plate, no cells were added but only sterile water was added; only the inner 60 wells were used for cell assay and control; • 4. 5×compound dilution: the compounds were serially diluted 3-fold to obtain a total of 9 concentrations; 80-fold overall dilution was completed with complete medium, the resulting concentration was 5 times the final drug concentration, and DMSO concentration was 1.25%; • 5. 20 μL of the corresponding compounds with different concentration gradients were added to each well of assay wells of the 96-well plate; 20 μL of complete medium was added to positive and negative control wells and shaken well; and the final concentration of DMSO in each well was 0.25%; • 6. After 72 hours of incubation, 10 μL of CCK-8 reagent was added to each well and further incubated at 37° C. for 1-2 hours; and the OD value was read at 450 nm; • 7. Cell survival rate (%)=[(As−Ab)/(Ac−Ab)]*100% • As: Assay well (medium containing cells, CCK-8, compound), • Ac: Control well (medium containing cells, CCK-8), • Ab: Blank well (CCK-8, medium without cell and compound), • 8. The values were imported into Graphpad Prism 5 software for IC50 calculation.

The target of another test is VEGFR-2 kinase (Homo sapiens (Human), UniProt P35968). The test is described as follows: Assay of small molecular compounds for inhibiting the activity of VEGFR-2 kinase (LANCE TR-FRET). As to conditions: read-out: VEGFR2 IC50. The format is biochemical. The procedure: The assay is based on the LANCE TR-FRET technology of Perkin Elmer Inc., and the assay method is as follows: • 1. Dilution of compounds: a total of 11 concentrations were obtained using a 3-fold gradient dilution from the highest concentration of 2500 nM (the maximum final concentration of the drug used in this assay was 2500 nM, and the minimum final concentration was 0.042 nM). • 2. 2.5 μL of the gradient-diluted compounds were taken with a transfer pipette to a 384-well plate. • 3. Addition of enzyme: 5 μL of 2×VEGFR2 kinase solution (with a concentration of 0.5 nM) was taken with a transfer pipette to the corresponding reaction well of the 384-well plate, mixed well and pre-reacted at room temperature for 30 minutes. • 4. 2.5 μL 4× Ultra ULight™-JAK-1 (Tyr1023) Peptide (with a concentration of 200 nM)/ATP (with a concentration of 40 μM) mixture was taken with a transfer pipette to the corresponding reaction well of the 384-well plate. • 5. Negative control: 2.5 μL/well 4× substrate/ATP mixture and 7.5 μL 1× Kinase Assay Buffer were added to the wells of the 384-well plate. • 6. Positive control: 2.5 μL/well 4× substrate/ATP mixture, 2.5 μL/well 1× Kinase Assay Buffer containing 16% DMSO, and 5 μL/well 2×VEGFR-2 kinase solution were added to the 384-well plate. The final concentration of DMSO in the reaction system was 4%. • 7. The mixture was mixed well and then centrifuged and reacted at room temperature in dark for 60 min. • 8. Termination of the enzymatic reaction: 5 μL of 4× stop solution was taken with a transfer pipette to the wells of the 384-well plate, mixed and then centrifuged, and reacted at room temperature for 5 min. • 9. Development of the reaction: 5 μL of 4× detection solution was taken with a transfer pipette to the wells of the 384-well plate for color development, and the mixture was mixed and then centrifuged and reacted at room temperature for 60 min. • 10. The 384-well plate was placed into the Envision plate reader and the signal was detected using the appropriate program. • 11. Analysis and processing of the raw data: The drug concentrations and the corresponding inhibition rates were input into GraphPad Prism5 for calculation, and the inhibition rate of the compounds were calculated as follows: inhibition rate (%)=(reading of positive well−reading of experimental well)/(reading of positive control well−reading of negative control well)×100%. Processing with GraphPad Prism5 software yielded the corresponding IC50 values (the concentration of the compound at which 50% of the highest inhibition of the enzyme is achieved).
VEGFR-2 kinase, sequence (P35968 20-1356): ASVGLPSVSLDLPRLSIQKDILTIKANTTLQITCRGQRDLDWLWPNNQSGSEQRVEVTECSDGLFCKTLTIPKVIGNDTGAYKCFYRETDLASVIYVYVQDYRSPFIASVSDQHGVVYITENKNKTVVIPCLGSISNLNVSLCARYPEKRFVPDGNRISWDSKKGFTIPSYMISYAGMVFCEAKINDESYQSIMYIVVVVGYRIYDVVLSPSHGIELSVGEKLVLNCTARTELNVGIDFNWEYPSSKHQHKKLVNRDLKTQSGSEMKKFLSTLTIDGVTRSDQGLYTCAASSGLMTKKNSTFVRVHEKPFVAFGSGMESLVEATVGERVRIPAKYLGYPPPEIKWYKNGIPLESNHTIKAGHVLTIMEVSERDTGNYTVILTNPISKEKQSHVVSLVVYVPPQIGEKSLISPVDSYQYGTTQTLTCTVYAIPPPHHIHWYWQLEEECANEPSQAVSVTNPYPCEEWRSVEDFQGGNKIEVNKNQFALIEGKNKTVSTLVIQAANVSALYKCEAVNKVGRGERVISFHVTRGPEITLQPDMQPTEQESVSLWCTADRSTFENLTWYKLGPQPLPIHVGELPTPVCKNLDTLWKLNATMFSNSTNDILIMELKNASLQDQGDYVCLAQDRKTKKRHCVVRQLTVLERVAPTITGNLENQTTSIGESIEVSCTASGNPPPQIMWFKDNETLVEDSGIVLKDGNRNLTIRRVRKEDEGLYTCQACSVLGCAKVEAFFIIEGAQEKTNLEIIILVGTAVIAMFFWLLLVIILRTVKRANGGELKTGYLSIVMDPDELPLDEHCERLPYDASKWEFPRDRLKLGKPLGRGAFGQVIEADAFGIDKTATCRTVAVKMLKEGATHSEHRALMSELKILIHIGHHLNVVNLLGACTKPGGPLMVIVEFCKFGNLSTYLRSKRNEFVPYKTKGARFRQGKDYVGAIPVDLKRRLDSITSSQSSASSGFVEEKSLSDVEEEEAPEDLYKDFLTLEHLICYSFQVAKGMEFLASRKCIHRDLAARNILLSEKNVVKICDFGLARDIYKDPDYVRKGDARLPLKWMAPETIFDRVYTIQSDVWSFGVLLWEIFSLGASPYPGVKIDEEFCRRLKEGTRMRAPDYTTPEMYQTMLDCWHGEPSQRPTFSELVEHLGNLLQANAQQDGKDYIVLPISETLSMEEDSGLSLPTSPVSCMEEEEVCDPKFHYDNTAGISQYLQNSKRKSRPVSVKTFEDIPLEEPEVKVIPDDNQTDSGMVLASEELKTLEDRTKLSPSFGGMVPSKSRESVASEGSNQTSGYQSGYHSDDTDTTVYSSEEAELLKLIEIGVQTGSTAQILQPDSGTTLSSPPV

c-MET kinase, sequence (P08581 25-1390): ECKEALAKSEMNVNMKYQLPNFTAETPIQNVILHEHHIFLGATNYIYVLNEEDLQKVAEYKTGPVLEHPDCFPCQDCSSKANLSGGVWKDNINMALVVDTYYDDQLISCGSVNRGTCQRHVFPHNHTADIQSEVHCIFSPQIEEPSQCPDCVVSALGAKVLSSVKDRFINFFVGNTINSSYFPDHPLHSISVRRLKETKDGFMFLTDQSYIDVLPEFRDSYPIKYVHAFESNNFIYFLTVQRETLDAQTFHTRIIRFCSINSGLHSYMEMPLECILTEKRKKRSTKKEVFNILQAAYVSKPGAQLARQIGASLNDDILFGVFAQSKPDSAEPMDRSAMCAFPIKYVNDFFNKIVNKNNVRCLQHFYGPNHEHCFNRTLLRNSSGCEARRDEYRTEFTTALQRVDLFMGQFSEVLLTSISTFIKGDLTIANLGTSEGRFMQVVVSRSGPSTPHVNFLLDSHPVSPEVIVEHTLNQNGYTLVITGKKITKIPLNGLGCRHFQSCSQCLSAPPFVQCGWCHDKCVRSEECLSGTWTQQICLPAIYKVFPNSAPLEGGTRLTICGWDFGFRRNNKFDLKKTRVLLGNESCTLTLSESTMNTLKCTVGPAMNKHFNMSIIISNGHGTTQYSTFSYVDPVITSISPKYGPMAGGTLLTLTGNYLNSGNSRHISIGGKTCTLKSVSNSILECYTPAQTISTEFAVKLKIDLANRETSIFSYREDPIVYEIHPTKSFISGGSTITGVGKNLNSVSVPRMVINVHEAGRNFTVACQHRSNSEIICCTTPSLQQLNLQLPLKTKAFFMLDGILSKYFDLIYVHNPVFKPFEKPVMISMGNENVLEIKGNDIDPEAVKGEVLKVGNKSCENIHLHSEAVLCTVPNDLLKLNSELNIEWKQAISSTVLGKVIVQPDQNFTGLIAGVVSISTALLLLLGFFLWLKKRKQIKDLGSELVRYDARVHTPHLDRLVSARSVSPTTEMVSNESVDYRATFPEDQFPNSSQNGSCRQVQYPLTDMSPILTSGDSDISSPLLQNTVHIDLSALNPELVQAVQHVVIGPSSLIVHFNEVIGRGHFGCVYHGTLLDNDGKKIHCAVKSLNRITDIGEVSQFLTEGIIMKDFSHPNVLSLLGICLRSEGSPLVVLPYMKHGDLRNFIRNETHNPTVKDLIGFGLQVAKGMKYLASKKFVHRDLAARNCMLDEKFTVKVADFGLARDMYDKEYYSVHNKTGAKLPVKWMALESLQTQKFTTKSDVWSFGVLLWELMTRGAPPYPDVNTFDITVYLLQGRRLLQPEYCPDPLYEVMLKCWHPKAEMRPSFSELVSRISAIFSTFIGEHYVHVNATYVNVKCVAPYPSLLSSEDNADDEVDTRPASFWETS
MER kinase, sequence (Q12866 21-999): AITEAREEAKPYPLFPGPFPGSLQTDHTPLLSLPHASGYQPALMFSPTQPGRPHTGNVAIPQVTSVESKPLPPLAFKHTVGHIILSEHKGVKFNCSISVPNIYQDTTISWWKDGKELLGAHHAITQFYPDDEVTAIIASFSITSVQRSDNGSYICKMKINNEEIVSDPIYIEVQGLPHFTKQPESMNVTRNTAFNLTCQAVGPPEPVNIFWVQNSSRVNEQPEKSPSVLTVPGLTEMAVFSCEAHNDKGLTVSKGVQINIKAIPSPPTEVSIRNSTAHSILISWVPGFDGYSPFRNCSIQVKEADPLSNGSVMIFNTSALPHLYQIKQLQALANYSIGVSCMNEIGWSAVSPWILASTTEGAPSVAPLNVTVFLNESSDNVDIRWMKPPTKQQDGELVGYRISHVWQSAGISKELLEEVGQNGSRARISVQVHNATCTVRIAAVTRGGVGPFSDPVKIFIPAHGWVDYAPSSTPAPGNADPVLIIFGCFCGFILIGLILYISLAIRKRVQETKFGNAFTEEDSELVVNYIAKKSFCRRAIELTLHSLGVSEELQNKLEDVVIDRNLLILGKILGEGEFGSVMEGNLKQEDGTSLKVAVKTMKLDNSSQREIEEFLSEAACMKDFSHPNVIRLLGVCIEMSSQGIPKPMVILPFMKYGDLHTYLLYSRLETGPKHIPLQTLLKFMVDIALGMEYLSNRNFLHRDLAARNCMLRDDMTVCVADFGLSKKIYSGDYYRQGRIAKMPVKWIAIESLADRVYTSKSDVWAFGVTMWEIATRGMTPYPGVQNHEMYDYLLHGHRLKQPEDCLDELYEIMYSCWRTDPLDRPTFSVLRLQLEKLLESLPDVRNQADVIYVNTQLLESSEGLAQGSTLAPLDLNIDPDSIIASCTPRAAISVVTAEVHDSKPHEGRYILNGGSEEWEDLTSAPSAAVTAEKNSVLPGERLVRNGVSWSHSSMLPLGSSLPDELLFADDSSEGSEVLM
TRKA kinase, sequence (P04629 33-796): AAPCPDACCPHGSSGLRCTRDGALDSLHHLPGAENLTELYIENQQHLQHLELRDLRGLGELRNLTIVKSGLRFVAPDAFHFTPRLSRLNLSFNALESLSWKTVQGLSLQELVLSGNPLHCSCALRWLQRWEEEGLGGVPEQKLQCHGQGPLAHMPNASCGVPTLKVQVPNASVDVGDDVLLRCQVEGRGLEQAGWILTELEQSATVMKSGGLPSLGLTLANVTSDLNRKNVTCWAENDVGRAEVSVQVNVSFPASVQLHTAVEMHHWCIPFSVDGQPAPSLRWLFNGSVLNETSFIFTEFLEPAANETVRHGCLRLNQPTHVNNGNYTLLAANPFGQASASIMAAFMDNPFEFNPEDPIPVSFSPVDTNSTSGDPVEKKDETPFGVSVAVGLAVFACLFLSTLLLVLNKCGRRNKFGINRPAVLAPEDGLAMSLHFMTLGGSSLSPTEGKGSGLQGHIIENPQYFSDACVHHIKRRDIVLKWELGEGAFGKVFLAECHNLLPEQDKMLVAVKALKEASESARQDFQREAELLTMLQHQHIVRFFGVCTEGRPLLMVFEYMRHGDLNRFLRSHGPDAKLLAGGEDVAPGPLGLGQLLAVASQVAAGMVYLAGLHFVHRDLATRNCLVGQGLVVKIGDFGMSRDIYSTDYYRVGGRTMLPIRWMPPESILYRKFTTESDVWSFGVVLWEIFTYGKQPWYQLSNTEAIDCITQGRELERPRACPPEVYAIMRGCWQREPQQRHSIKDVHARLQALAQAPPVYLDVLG

On to `Cc1cc(F)ccc1-n1ccc(C(=O)Nc2ccc(Oc3ccnc4cc(OCCCN5CCOCC5)c5c(c34)OCCO5)c(F)c2)n1` [Example 26, 1-(4-fluoro-2-methylphenyl)-N-(3-fluoro-4-((5-(3-morpholinopropoxy)-2,3-dihydro-[1,4]dioxino[2,3-f]quinolin-10-yl)oxy)phenyl)-1H-pyrazole-3-carboxamide], for which the IC50 (commonly the concentration that gives 50% inhibition) is less than 50 nM on TRKA kinase; no more than 50 nM at c-MET kinase; 50 to 500 nM against MER kinase; less than 50 nM in the test on Ba/F3-AXL cells; less than 50 nM in the test on Ba/F3 LMNA-NTRK1 cells.
On to `CCOc1cn(-c2ccc(F)cc2C)nc1C(=O)Nc1ccc(Oc2ccnc3cc(OCCCN4CCOCC4)c4c(c23)OCCO4)c(F)c1` [Example 28, 1-(4-fluoro-2-methylphenyl)-N-(3-fluoro-4-((5-(3-morpholinopropoxy)-2,3-dihydro-[1,4]dioxino[2,3-f]quinolin-10-yl)oxy)phenyl)-4-ethoxy-1H-pyrazole-3-carboxamide], for which the IC50 is less than 50 nM against TRKA kinase; no more than 50 nM at c-MET kinase; no more than 50 nM against MER kinase; less than 50 nM with Ba/F3-AXL cells; less than 50 nM with Ba/F3 LMNA-NTRK1 cells.
Turning to `CCc1cc(Oc2ccnc3cc(OCCOC)c4c(c23)OCCO4)c(F)cc1NC(=O)c1cn(C)c(=O)n(-c2ccc(F)cc2)c1=O` [Example 181, N-(5-fluoro-4-((5-(2-methoxyethoxy)-2,3-dihydro-[1,4]dioxino[2,3-f]quinolin-10-yl)oxy)-2-ethylphenyl)-3-(4-fluorophenyl)-1-methyl-2,4-dioxo-1,2,3,4-tetrahydropyrimidine-5-carboxamide], the concentration for half-maximal inhibition (IC50) is less than 50 nM on TRKA kinase, no more than 50 nM at c-MET kinase and 50 to 200 nM in the test on MHCC97H cells.
The corresponding values for `COCCOc1cc2nccc(Oc3cc(C(C)C)c(NC(=O)c4cn(C)c(=O)n(-c5ccc(F)cc5)c4=O)cc3F)c2c2c1OCCO2` [Example 183, N-(5-fluoro-4-((5-(2-methoxyethoxy)-2,3-dihydro-[1,4]dioxino[2,3-f]quinolin-10-yl)oxy)-2-isopropylphenyl)-3-(4-fluorophenyl)-1-methyl-2,4-dioxo-1,2,3,4-tetrahydropyrimidine-5-carb oxamide] are 50 to 500 nM, 50 to 500 nM and greater than 1000 nM.
Regarding `CCn1cc(C(=O)Nc2cc(F)c(Oc3ccnc4cc(OCCOC)c5c(c34)OCCO5)cc2C(C)C)c(=O)n(-c2ccc(F)cc2)c1=O` [Example 184, N-(5-fluoro-4-((5-(2-methoxyethoxy)-2,3-dihydro-[1,4]dioxino[2,3-f]quinolin-10-yl)oxy)-2-isopropylphenyl)-3-(4-fluorophenyl)-1-ethyl-2,4-dioxo-1,2,3,4-tetrahydropyrimidine-5-carboxamide], the figures for the IC50 at TRKA kinase and in the test with MHCC97H cells were 50 to 500 nM and greater than 1000 nM, respectively.
In the case of `CC(C)n1cc(C(=O)Nc2ccc(Oc3ccnc4cc(OCCCCCCN(C)C)c5c(c34)OCCO5)c(F)c2)c(=O)n(-c2ccc(F)cc2)c1=O` [Example 85, N-(3-fluoro-4-((5-((6-dimethylamino)hexyloxy)-2,3-dihydro-[1,4]dioxino[2,3-f]quinolin-10-yl)oxy)phenyl)-3-(4-fluorophenyl)-1-isopropyl-2,4-dioxo-1,2,3,4-tetrahydropyrimidine-5-carboxamide], the IC50 was 50 to 500 nM on c-MET kinase, 50 to 500 nM on VEGFR-2 kinase, less than 50 nM in the test with Ba/F3-AXL cells and less than 50 nM in the test on Ba/F3 LMNA-NTRK1 cells.
In the case of `CCc1cc(Oc2ccnc3cc(OCCOC)c4c(c23)OCCO4)c(F)cc1NC(=O)c1cn(CC)c(=O)n(-c2ccc(F)cc2)c1=O` [Example 182, N-(5-fluoro-4-((5-(2-methoxyethoxy)-2,3-dihydro-[1,4]dioxino[2,3-f]quinolin-10-yl)oxy)-2-ethylphenyl)-3-(4-fluorophenyl)-1-ethyl-2,4-dioxo-1,2,3,4-tetrahydropyrimidine-5-carboxamide], the IC50 at TRKA kinase is 50 to 500 nM; at c-MET kinase, no more than 50 nM; in the test on MHCC97H cells, no more than 50 nM.
On to `COc1cc2nccc(Oc3ccc(NC(=O)c4cccn(-c5ccc(F)cc5)c4=O)c(Cl)c3)c2c2c1OCCO2` [Example 123, N-(2-chloro-4-((5-methoxy-2,3-dihydro-[1,4]dioxino[2,3-f]quinolin-10-yl)oxy)phenyl)-1-(4-fluorophenyl)-2-oxo-1,2-dihydropyridine-3-carboxamide], for which the concentration for half-maximal inhibition (IC50) against TRKA kinase was less than 50 nM; against MER kinase, no more than 50 nM; at VEGFR-2 kinase, greater than 5000 nM; with Ba/F3-AXL cells, less than 50 nM; in the test with Ba/F3 LMNA-NTRK1 cells, less than 50 nM.
Turning to `COc1cc2nccc(Oc3ccc(NC(=O)c4c(OC)ccn(-c5ccc(F)cc5)c4=O)c(Cl)c3)c2c2c1OCCO2` [Example 124, N-(2-chloro-4-((5-methoxy-2,3-dihydro-[1,4]dioxino[2,3-f]quinolin-10-yl)oxy)phenyl)-1-(4-fluorophenyl)-4-methoxy-2-oxo-1,2-dihydropyridine-3-carboxamide], the half-inhibitory concentration (IC50) is less than 50 nM against TRKA kinase; no more than 50 nM against MER kinase; 500 to 5000 nM on VEGFR-2 kinase; less than 50 nM in the test with Ba/F3-AXL cells; less than 50 nM in the test on Ba/F3 LMNA-NTRK1 cells.

The values are drawn from patent US12202835B2, “Substituted aromatic ring-linked dioxinoquinazolines and dioxinoquinolines as kinase inhibitors” (BEIJING SCITECH-MQ PHARMACEUTICALS LIMITED, priority 2018, dated 2025).
